These results are taken from US9783510B2, “Small molecule mediated transcriptional induction of E-cadherin” (Vanderbilt University, priority 2014, dated 2017).

Data set [1] is described as follows: IV pharmacokinetics in Sprague-Dawley rats. In kind it is in vivo. The following applies: IV dosing. How it is done:
(§1) The potency and efficacy of Compound 13 was evaluated in vivo. For these studies, the pharmacokinetics of Compound 13 were first evaluated in vitro and in vivo (FIG. 14).

Data set [2] concerns E-cadherin expression in SW620inv colon cancer cells. Put plainly: Quantitative in-cell Western (ICW), E-cadherin restoration in SW620inv cells. In kind it is cell-based. As to conditions: 24 hours, 3 biological replicates. How it is done:
SW620inv cells were used for ICW analysis as described (Stoops, S. L., et al. (2011) ACS Chemical Biology 6, 452-465).
SW620 cells (ATCC p92) were grown in RPMI+10% FBS+P/S to sub-confluence. The cells were washed with PBS, trypsinized, and re-suspended in serum-free RPMI at a concentration of one million cells/mL. The cells were then added to the upper chamber of 24 mm transwell (Costar#3428) that had been coated with 400 μL of 2.5 mg/mL matrigel (BD Biosciences). One milliliter of 10% FBS+P/S was added to the lower chamber. The cells were incubated at 37° C. for 72 hours in order to allow the cells to invade. Four biological replicate transwells were prepared for invasion. […] These invasive cells were then analyzed by western blot, matrigel invasion assay, and immunofluorescence for E-cadherin levels with and without TSA treatments. […]
Compounds of the present invention restore E-cadherin protein to the surface of selected aggressive colon and lung cancer cells. […] The kinetics of altered E-cadherin expression in SW620inv cells was determined by quantitative Western blot, using the Odyssey imaging system. […]
Referring to FIG. 2B and FIG. 2C, concentration dependent changes in E-cadherin expression following 24 hours of Compound 13 (259Y) treatment as determined by quantitative in cell Western (ICW) are shown.

Data set [3] is described as follows: Protein binding in vitro, human samples. The data set is classed as in vitro ADME. The procedure:
as §1

In data set [4] the test system is E-cadherin protein in SW620inv cells. Put plainly: Quantitative Western blot of E-cadherin protein, SW620inv time course. The data set is classed as cell-based. As to conditions: maintained level, 12, 18 and 24 hour time-points.
Data set [5] has as its system proximal region of the E-cadherin promoter (Cdh1) in SW620inv cells. Put plainly: ChIP assay at proximal E-cadherin promoter, SW620inv cells. The data set is classed as cell-based.
In data set [6] the test system is E-cadherin mRNA in H520 cells. Nature of the data set: qPCR of E-cadherin specific mRNA, H520 cells. The data set is classed as cell-based. The following applies: H520, 10 μM, 6 hours post-treatment, relative to DMSO.
The test system of data set [7] is HMEC-1 cells. Nature of the data set: E-cadherin, VE-cadherin, Vimentin and histone marks in HMEC-1 cells (qPCR, Western blot). The data set is classed as cell-based, human. As to conditions: HMEC-1, 10 μM, by 12 and 24 hours after treatment.
The subject of data set [8] is E-cadherin expression in H520 cells. Put plainly: E-cadherin expression, in-cell Western (ICW), H520 cells. The data set is classed as cell-based. The following applies: Homo sapiens, NCI-H520. The procedure: SW620 and H520 cells (5×10^4/100 μL) were seeded in a 96-well plate prior to treatment. Cells were treated with 10 μM concentration of synthesized compound in quadruplicate for 24 hours in RPMI 1640 supplemented medium and 100 μg/mL penicillin-streptomycin. The cells were then fixed with 100% methanol for 20 minutes at 4° C. The wells were then washed 2 times with PBS, permeabilized in 2% bovine serum albumin (BSA) and 0.2% TritonX-100 in PBS for 30 minutes at room temperature with gentle agitation, and blocked in LI-COR blocking buffer for 30 minutes at room temperature with gentle agitation. The cells were then incubated with the following primary antibodies: anti-E-Cadherin (1:500) and anti-α-Tubulin (1:1000) diluted in blocking buffer (1:1 dilution in PBS) for 2 hours at room temperature with gentle agitation. The cells were washed 4 times in PBS-T for 5 minutes each, and then incubated with the following secondary antibodies conjugated to a fluorescent entity: IRDye 800-conjugated goat anti-rabbit IgG (1:1000) and IRDye-700-conjugated goat anti-mouse IgG (1:2000) in blocking buffer (1:1 dilution in PBS) with gentle agitation for 1 h at room temperature. The cells were washed 4 times in PBS-T for 5 minutes each followed by a single wash with PBS. All liquid was removed from the wells and the plates were visualized and analyzed on the Odyssey IR imaging system (LI-COR Biosciences).
The assay was further optimized in the following manner. The cells were washed 2 times with PBS, fixed in 100% methanol at room temperature for 15 minutes, and again washed 2 times with PBS. The cells were then incubated with the following primary antibodies: anti-E-Cadherin (1:200) and anti-α-Tubulin (1:2000) diluted in ice cold 2% bovine serum albumin (BSA) and 0.2% TritonX-100 in PBS for 1 hour at room temperature with gentle agitation. The cells were washed 2 times in PBS and then incubated with the following secondary antibodies conjugated to a fluorescent entity: Licor 800-conjugated goat anti-rabbit IgG (1:2000) and IRDye-700-conjugated goat anti-mouse IgG (1:2000) in ice cold 2% BSA and 0.2% TritonX-100 in PBS with gentle agitation for 45 minutes at room temperature. The wells were washed 2 times in PBS, dried, and analyzed as previously mentioned.
Changes in expression level of E-cadherin in response to 10 μM compound in H520 cells was determined in a cell-based functional assay as described above, and the data are shown in Table IV. The compound number corresponds to the compound numbers used in Table II.
EC50 of inducement of E-cadherin expression in H520 cells was determined in a cell-based functional assay as described above, and the data are shown in Table VI. The compound number corresponds to the compound numbers used in Table II.

The nature of data set [9]: Clearance in human microsomes. In kind it is in vitro ADME. The procedure:
as §1

A short description of data set [10]: Intrinsic clearance in vitro, mouse. In kind it is in vitro ADME. How it is done: as §1
A short description of data set [11]: Clearance in vitro, rat. In kind it is in vitro ADME. How it is done:
as §1

Setting [12] is: SW620inv, ChIP, 10 μM vs DMSO (FIG. 7C).

Some results are limits rather than exact numbers.

Consider `O=C(NCCCNC(=O)c1cccnc1O)c1cc(-c2ccccc2)on1` [Compound 13, N-(3-(2-hydroxynicotinamido)propyl)-5-phenylisoxazole-3-carboxamide], for which, in data set [1], the clearance entry is recorded as “moderate”, the elimination half-life result is given as “long” and the volume of distribution result is “moderate”. Further, in data set [2], the response was half-maximal at 2.22 µM (EC50). Moreover, the protein binding result in data set [3] is “relatively high”. The “E-cadherin protein levels relative to control vehicle treated cells” value in data set [4] is listed as above 10 ×. Also, the “Pol II association with the E-cadherin proximal promoter” value in data set [5] (ChIP (FIG. 8)) is 3.7 fold. Also, in data set [5] (setting [12]), the “enriched binding of H3K4me3 at the E-cadherin promoter” value turned out to be 2.1 fold, the “enriched binding of H3K9Ac at the E-cadherin promoter” value was 3.4 fold and the “enriched binding of Pol II at the E-cadherin promoter” value is on record as 4.6 fold. Further, in data set [6], the “increase of E-cadherin specific mRNA” value was 20 fold. For the same molecule, the “induced expression of E-cadherin mRNA species” value in [7] is above 5 ×. This molecule also showed a fold induction at 10 µM in data set [8] (change in expression level of E-cadherin in response to 10 μM compound, 24 hours, H520 cells) of 5.54. Also, the midpoint of the response in data set [8] (inducement of E-cadherin expression in H520 cells), the EC50, lay at 1 µM. Moreover, in data set [9], the clearance result is recorded as “minimal”. Also, the intrinsic clearance result in data set [10] is reported as “high”. Moreover, the clearance entry in [11] is on record as “very moderate”.
